According to patent publication US10961236B2, “(S)-2-(1-cyclopropylethyl)-5-(4-methyl-2-((6-(2-oxopyrrolidin-1-yl)pyridin-2-yl)amino) thiazol-5-yl)-7-(methylsulfonyl)isoindolin-1-one as a phosphatidylinositol 3-kinase inhibitor” (AstraZeneca AB, priority 2016, dated 2021):
pIC50: −log10 of the molar value.

Experiments:
Assay type in all cases: biochemical
[1] = target: recombinant human PI3Kδ (6-His(p110-p85α)) (Homo sapiens (Human), UniProt O00329); experiment: Enzymatic activity assay for recombinant human PI3Kδ (ADP-Glo); details: 0.6 nM PI3Kδ, 20 μM ATP, 80 μM DiC8-PIP2, ADP-Glo
Summary of the method: (§1)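 ADP-Glo luminescence after DiC8-PIP2 (80 μM) phosphorylation with 20 μM ATP in 50 mM Tris pH 7.4, 3 mM MgCl2, 2.1 mM DTT, 0.05% CHAPS at room temperature. Enzyme 1.2 nM PI3Kγ or 0.6 nM PI3Kδ; inhibitors pre-incubated 15 min, then 60 min reaction.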

[2] = target: recombinant human PI3Kγ ((aa144-1102)-6His) (Homo sapiens (Human), UniProt P48736); experiment: Enzymatic activity assay for recombinant human PI3Kγ (ADP-Glo); details: 1.2 nM PI3Kγ, 20 μM ATP, 80 μM DiC8-PIP2, ADP-Glo
Summary of the method: as §1

[3] = target: recombinant human PI3Kβ (6-His(p110-p85α)) (Homo sapiens (Human), UniProt P42338); experiment: Enzymatic activity assay for recombinant human PI3Kβ (ADP-Glo); details: 1.2 nM PI3Kβ, 20 μM ATP, 80 μM DiC8-PIP2, ADP-Glo
Summary of the method: (§2)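 ADP-Glo luminescence after DiC8-PIP2 phosphorylation at RT: 80 μM lipid substrate, 20 μM ATP, 1.2 nM enzyme (0.6 nM for δ) in Tris pH 7.4 with MgCl2, DTT, CHAPS. Compounds pre-incubated 15 min with enzyme, then 60 min reaction; DMSO ≤1%.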

[4] = target: recombinant human PI3Kα (6-His(p110-p85α)) (Homo sapiens (Human), UniProt P42336); experiment: Enzymatic activity assay for recombinant human PI3Kα (ADP-Glo); details: 1.2 nM PI3Kα, 20 μM ATP, 80 μM DiC8-PIP2, ADP-Glo
Summary of the method: as §2

Sequence of recombinant human PI3Kα (6-His(p110-p85α)) (P42336 whole entry): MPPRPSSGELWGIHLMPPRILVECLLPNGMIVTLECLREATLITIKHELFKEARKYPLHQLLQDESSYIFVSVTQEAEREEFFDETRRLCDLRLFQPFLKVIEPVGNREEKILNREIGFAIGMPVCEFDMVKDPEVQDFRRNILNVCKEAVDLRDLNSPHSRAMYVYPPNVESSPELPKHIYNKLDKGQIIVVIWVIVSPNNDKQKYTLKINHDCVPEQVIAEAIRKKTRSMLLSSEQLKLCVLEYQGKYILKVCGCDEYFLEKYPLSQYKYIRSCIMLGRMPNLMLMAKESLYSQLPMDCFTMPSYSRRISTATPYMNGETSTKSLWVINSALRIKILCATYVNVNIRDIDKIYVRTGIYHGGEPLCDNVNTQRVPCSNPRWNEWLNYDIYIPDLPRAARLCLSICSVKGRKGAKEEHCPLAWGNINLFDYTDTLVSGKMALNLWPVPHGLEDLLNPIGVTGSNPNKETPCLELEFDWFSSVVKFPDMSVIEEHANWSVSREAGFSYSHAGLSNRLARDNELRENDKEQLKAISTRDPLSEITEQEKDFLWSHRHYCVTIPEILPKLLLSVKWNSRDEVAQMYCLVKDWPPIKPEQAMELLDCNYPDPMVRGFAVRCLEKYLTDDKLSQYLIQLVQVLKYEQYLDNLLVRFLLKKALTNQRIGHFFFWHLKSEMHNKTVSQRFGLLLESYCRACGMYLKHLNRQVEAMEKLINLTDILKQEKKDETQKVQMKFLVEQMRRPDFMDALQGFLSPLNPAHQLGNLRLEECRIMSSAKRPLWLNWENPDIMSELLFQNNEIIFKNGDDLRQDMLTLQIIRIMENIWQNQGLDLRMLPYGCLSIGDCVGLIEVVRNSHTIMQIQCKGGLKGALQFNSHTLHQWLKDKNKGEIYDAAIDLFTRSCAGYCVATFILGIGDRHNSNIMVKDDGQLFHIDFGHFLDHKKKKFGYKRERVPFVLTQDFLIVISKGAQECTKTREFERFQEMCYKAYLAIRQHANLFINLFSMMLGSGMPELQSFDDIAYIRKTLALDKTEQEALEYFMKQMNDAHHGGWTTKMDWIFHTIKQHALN
Sequence of recombinant human PI3Kα (6-His(p110-p85α)) (P27986 whole entry partner): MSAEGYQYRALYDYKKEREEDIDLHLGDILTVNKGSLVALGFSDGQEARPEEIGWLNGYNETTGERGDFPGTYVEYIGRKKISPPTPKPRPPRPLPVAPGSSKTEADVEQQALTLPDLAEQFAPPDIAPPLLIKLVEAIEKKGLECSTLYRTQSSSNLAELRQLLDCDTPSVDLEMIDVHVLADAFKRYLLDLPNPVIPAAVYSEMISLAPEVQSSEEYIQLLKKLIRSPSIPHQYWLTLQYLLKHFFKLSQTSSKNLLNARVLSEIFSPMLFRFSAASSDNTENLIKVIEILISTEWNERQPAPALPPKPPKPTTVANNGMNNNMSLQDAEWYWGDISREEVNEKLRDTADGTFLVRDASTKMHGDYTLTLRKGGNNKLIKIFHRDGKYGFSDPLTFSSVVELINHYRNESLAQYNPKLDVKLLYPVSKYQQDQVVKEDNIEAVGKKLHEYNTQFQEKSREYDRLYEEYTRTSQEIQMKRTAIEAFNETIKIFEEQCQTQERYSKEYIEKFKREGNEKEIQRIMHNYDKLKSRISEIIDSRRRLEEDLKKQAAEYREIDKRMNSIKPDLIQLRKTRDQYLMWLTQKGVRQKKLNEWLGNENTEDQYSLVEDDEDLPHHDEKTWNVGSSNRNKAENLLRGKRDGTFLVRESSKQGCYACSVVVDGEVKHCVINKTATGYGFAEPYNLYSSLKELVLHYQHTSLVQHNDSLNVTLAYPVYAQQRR
Sequence of recombinant human PI3Kδ (6-His(p110-p85α)) (O00329 whole entry): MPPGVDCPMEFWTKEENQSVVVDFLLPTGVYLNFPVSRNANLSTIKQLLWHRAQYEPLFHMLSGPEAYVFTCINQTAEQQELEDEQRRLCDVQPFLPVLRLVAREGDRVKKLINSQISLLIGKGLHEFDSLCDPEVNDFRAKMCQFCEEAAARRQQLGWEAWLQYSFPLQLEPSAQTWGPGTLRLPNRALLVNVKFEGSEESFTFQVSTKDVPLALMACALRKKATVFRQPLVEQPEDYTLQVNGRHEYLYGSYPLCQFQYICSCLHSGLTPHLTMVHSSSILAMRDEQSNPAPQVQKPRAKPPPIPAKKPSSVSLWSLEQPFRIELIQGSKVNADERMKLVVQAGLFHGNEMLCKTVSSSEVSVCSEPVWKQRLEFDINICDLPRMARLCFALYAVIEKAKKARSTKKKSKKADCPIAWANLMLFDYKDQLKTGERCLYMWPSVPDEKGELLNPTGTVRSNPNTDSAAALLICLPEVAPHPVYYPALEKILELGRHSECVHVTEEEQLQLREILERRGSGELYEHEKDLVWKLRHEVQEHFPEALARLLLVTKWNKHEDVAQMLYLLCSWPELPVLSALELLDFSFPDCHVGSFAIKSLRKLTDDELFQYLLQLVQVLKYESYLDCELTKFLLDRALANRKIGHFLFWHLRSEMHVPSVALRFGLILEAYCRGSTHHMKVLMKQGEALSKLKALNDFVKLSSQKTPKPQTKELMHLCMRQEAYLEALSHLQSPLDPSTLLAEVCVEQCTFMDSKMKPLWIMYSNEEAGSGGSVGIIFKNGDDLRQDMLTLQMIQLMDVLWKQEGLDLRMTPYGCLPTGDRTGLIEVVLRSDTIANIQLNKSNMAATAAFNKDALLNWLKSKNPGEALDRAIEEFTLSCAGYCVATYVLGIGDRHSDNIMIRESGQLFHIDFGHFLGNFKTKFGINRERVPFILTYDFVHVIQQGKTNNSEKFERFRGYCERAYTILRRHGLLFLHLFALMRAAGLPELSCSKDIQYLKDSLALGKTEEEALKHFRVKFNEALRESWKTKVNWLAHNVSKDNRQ
Sequence of recombinant human PI3Kδ (6-His(p110-p85α)) (P27986 whole entry partner): as the sequence (P27986 whole entry partner) above
Sequence of recombinant human PI3Kγ ((aa144-1102)-6His) (P48736 144-1102): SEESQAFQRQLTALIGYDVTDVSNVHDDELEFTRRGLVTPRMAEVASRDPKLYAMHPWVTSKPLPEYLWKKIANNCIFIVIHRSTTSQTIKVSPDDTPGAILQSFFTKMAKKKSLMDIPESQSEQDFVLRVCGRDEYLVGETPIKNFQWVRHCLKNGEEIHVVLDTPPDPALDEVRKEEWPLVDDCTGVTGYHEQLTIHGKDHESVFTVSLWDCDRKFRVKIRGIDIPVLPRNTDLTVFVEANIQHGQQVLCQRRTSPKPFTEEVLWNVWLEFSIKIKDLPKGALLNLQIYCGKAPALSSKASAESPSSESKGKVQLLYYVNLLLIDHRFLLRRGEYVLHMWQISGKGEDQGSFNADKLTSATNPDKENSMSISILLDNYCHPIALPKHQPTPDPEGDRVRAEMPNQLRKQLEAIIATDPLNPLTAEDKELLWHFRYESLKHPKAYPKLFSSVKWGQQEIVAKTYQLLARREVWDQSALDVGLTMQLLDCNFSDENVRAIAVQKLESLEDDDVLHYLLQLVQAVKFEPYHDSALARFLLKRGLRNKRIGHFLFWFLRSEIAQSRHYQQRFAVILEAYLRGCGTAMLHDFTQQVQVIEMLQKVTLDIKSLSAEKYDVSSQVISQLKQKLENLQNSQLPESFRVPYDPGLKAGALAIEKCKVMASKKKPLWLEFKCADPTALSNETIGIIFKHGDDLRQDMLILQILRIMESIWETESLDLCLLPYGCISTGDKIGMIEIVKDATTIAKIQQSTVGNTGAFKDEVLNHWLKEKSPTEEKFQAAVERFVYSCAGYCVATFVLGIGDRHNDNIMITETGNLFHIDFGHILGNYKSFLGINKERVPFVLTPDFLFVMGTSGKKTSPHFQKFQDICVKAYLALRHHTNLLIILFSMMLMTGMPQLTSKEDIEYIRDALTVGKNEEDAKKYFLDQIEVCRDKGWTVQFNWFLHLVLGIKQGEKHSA
Sequence of recombinant human PI3Kβ (6-His(p110-p85α)) (P42338 whole entry): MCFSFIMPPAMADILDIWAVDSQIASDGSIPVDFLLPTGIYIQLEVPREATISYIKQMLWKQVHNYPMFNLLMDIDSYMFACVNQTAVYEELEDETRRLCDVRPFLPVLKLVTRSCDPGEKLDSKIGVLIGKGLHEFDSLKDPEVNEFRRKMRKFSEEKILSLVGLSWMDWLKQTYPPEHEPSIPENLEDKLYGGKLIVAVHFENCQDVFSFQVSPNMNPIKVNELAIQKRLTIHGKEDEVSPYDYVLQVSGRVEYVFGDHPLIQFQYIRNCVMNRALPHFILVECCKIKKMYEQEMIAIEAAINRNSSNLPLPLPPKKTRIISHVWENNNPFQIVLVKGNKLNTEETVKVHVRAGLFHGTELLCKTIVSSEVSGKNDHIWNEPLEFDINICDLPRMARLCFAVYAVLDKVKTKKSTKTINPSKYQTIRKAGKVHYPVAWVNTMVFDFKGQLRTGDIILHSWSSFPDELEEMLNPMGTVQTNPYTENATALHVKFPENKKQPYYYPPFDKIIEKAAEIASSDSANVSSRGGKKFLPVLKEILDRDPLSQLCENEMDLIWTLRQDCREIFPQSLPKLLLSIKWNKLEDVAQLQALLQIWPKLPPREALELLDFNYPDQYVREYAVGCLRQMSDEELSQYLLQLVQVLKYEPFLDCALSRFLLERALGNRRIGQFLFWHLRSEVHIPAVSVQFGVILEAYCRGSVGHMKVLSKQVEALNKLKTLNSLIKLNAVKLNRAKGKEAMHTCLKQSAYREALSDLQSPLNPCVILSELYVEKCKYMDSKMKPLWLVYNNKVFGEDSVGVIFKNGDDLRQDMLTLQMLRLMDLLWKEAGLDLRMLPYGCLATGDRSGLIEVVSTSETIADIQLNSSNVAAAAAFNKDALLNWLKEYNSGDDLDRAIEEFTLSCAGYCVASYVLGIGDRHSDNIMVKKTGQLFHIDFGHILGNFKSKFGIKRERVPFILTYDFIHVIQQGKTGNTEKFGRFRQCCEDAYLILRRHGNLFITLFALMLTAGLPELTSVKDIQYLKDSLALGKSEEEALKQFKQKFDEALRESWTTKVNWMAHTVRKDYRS
Sequence of recombinant human PI3Kβ (6-His(p110-p85α)) (P27986 whole entry partner): as the sequence (P27986 whole entry partner) above

A pIC50 [1] of 8.05, a pIC50 [2] of 8.85 and a pIC50 [3] of 4.98 were found for `CNS(=O)(=O)c1cc(-c2sc(Nc3cccc(N4CCOCC4=O)n3)nc2C)cc2c1C(=O)N([C@@H](C)C(C)(C)C)C2` [Example 39, 2-[(2S)-3,3-Dimethylbutan-2-yl]-N-methyl-6-(4-methyl-2-{[6-(3-oxomorpholin-4-yl)pyridin-2-yl]amino}-1,3-thiazol-5-yl)-3-oxo-2,3-dihydro-1H-isoindole-4-sulfonamide] in this work. For the same compound, the pIC50 [4] was 6.31.
A pIC50 [1] of 8.77, a pIC50 [2] of 8.80 and a pIC50 [3] of 6.14 were found for `Cc1nc(Nc2cccc(N3CCNCC3=O)n2)sc1-c1cc2c(c(S(C)(=O)=O)c1)C(=O)N([C@@H](C)C1CC1)C2` [Example 40, 2-[(1S)-1-Cyclopropylethyl]-5-(4-methyl-2-{[6-(2-oxopiperazin-1-yl)pyridin-2-yl]amino}-1,3-thiazol-5-yl)-7-(methylsulfonyl)-2,3-dihydro-1H-isoindol-1-one] in this work. The pIC50 [4] was 6.98.
A pIC50 [1] of 9.05, a pIC50 [2] of 8.89 and a pIC50 [3] of 6.53 were found for `CNS(=O)(=O)c1cc(-c2sc(Nc3cccc(N4CCNCC4=O)n3)nc2C)cc2c1C(=O)N([C@@H](C)C1CC1)C2` [Example 41, 2-[(1S)-1-Cyclopropylethyl]-N-methyl-6-(4-methyl-2-{[6-(2-oxopiperazin-1-yl)pyridin-2-yl]amino}-1,3-thiazol-5-yl)-3-oxo-2,3-dihydro-1H-isoindole-4-sulfonamide] in this work. It also gave a pIC50 [4] of 7.14.
A pIC50 [1] of 9.10, a pIC50 [2] of 9.00 and a pIC50 [3] of 6.54 were found for `CNS(=O)(=O)c1cc(-c2sc(Nc3cccc(N4C[C@H](C)NCC4=O)n3)nc2C)cc2c1C(=O)N([C@@H](C)C1CC1)C2` [Example 42, 2-[(1S)-1-Cyclopropylethyl]-N-methyl-6-[4-methyl-2-({6-[(5S)-5-methyl-2-oxopiperazin-1-yl]pyridin-2-yl}amino)-1,3-thiazol-5-yl]-3-oxo-2,3-dihydro-1H-isoindole-4-sulfonamide] in this work. The pIC50 [4] was 7.16.
A pIC50 [1] of 9.00, a pIC50 [2] of 9.00 and a pIC50 [3] of 6.55 were found for `CNS(=O)(=O)c1cc(-c2sc(Nc3cccc(N4CCN[C@H](C)C4=O)n3)nc2C)cc2c1C(=O)N([C@@H](C)C1CC1)C2` [Example 43, 2-[(1S)-1-Cyclopropylethyl]-N-methyl-6-[4-methyl-2-({6-[(3R)-3-methyl-2-oxopiperazin-1-yl]pyridin-2-yl}amino)-1,3-thiazol-5-yl]-3-oxo-2,3-dihydro-1H-isoindole-4-sulfonamide] in this work. The pIC50 [4] was 7.40.
A pIC50 [1] of 8.82, a pIC50 [2] of 8.92 and a pIC50 [3] of 6.29 were found for `CNS(=O)(=O)c1cc(-c2sc(Nc3cccc(N4CCN[C@@H](C)C4=O)n3)nc2C)cc2c1C(=O)N([C@@H](C)C1CC1)C2` [Example 44, 2-[(1S)-1-Cyclopropylethyl]-N-methyl-6-[4-methyl-2-({6-[(3S)-3-methyl-2-oxopiperazin-1-yl]pyridin-2-yl}amino)-1,3-thiazol-5-yl]-3-oxo-2,3-dihydro-1H-isoindole-4-sulfonamide] in this work. The pIC50 [4] was 7.14.
A pIC50 [1] of 9.00, a pIC50 [2] of 9.10 and a pIC50 [3] of 6.59 were found for `CNS(=O)(=O)c1cc(-c2sc(Nc3cccc(N4C[C@@H](C)NCC4=O)n3)nc2C)cc2c1C(=O)N([C@@H](C)C1CC1)C2` [Example 45, 2-[(1S)-1-Cyclopropylethyl]-N-methyl-6-[4-methyl-2-({6-[(5R)-5-methyl-2-oxopiperazin-1-yl]pyridin-2-yl}amino)-1,3-thiazol-5-yl]-3-oxo-2,3-dihydro-1H-isoindole-4-sulfonamide] in this work. It also gave a pIC50 [4] of 7.48.
A pIC50 [1] of 9.10, a pIC50 [2] of 9.00 and a pIC50 [3] of 6.91 were found for `CNS(=O)(=O)c1cc(-c2sc(Nc3cccc(N4C(=O)CNC[C@H]4C)n3)nc2C)cc2c1C(=O)N([C@@H](C)C1CC1)C2` [Example 46, 2-[(1S)-1-Cyclopropylethyl]-N-methyl-6-[4-methyl-2-({6-[(2R)-2-methyl-6-oxopiperazin-1-yl]pyridin-2-yl}amino)-1,3-thiazol-5-yl]-3-oxo-2,3-dihydro-1H-isoindole-4-sulfonamide] in this work. It also gave a pIC50 [4] of 7.62.
A pIC50 [1] of 8.36, a pIC50 [2] of 8.89 and a pIC50 [3] of 6.08 were found for `CNS(=O)(=O)c1cc(-c2sc(Nc3cccc(N4CCNC(C)(C)C4=O)n3)nc2C)cc2c1C(=O)N([C@@H](C)C1CC1)C2` [Example 47, 2-[(1S)-1-Cyclopropylethyl]-6-(2-{[6-(3,3-dimethyl-2-oxopiperazin-1-yl)pyridin-2-yl]amino}-4-methyl-1,3-thiazol-5-yl)-N-methyl-3-oxo-2,3-dihydro-1H-isoindole-4-sulfonamide] in this work. The pIC50 [4] was 7.01.
A pIC50 [1] of 9.15, a pIC50 [2] of 8.82 and a pIC50 [3] of 6.70 were found for `CNS(=O)(=O)c1cc(-c2sc(Nc3cccc(N4CC(C)(C)NCC4=O)n3)nc2C)cc2c1C(=O)N([C@@H](C)C1CC1)C2` [Example 48, 2-[(1S)-1-Cyclopropylethyl]-6-(2-{[6-(5,5-dimethyl-2-oxopiperazin-1-yl)pyridin-2-yl]amino}-4-methyl-1,3-thiazol-5-yl)-N-methyl-3-oxo-2,3-dihydro-1H-isoindole-4-sulfonamide] in this work. The pIC50 [4] was 7.72.
A pIC50 [1] of 8.59, a pIC50 [2] of 8.72 and a pIC50 [3] of 6.10 were found for `CNS(=O)(=O)c1cc(-c2sc(Nc3cccc(N4C(=O)CNC[C@@H]4C)n3)nc2C)cc2c1C(=O)N([C@@H](C)C1CC1)C2` [Example 49, 2-[(1S)-1-Cyclopropylethyl]-N-methyl-6-[4-methyl-2-({6-[(2S)-2-methyl-6-oxopiperazin-1-yl]pyridin-2-yl}amino)-1,3-thiazol-5-yl]-3-oxo-2,3-dihydro-1H-isoindole-4-sulfonamide] in this work. The pIC50 [4] was 7.06.
A pIC50 [1] of 9.10, a pIC50 [2] of 8.85 and a pIC50 [3] of 6.57 were found for `CCNS(=O)(=O)c1cc(-c2sc(Nc3cccc(N4CCNCC4=O)n3)nc2C)cc2c1C(=O)N([C@@H](C)C1CC1)C2` [Example 50, 2-[(1S)-1-Cyclopropylethyl]-N-ethyl-6-(4-methyl-2-{[6-(2-oxopiperazin-1-yl)pyridin-2-yl]amino}-1,3-thiazol-5-yl)-3-oxo-2,3-dihydro-1H-isoindole-4-sulfonamide] in this work. It also gave a pIC50 [4] of 7.27.
A pIC50 [1] of 8.96, a pIC50 [2] of 8.82 and a pIC50 [3] of 6.38 were found for `Cc1nc(Nc2cccc(N3CCNCC3=O)n2)sc1-c1cc2c(c(S(=O)(=O)NC(C)C)c1)C(=O)N([C@@H](C)C1CC1)C2` [Example 51, 2-[(1S)-1-Cyclopropylethyl]-6-(4-methyl-2-{[6-(2-oxopiperazin-1-yl)pyridin-2-yl]amino}-1,3-thiazol-5-yl)-3-oxo-N-(propan-2-yl)-2,3-dihydro-1H-isoindole-4-sulfonamide] in this work. It also gave a pIC50 [4] of 6.87.
A pIC50 [1] of 9.15, a pIC50 [2] of 8.85 and a pIC50 [3] of 6.58 were found for `CNS(=O)(=O)c1cc(-c2sc(Nc3cccc(N4CCNCCC4=O)n3)nc2C)cc2c1C(=O)N([C@@H](C)C1CC1)C2` [Example 53, 2-[(1S)-1-Cyclopropylethyl]-N-methyl-6-(4-methyl-2-{[6-(7-oxo-1,4-diazepan-1-yl)pyridin-2-yl]amino}-1,3-thiazol-5-yl)-3-oxo-2,3-dihydro-1H-isoindole-4-sulfonamide] in this work. For the same compound, the pIC50 [4] was 7.19.
